Data set [1] can be described thus: Affinity to atmospheric humidity / hygroscopicity. It is filed as physicochemical. Conditions: solid.
In data set [2] the test system is Escherichia Coli T 55 4376. In words: In vitro antibacterial activity, liquid medium dilution (MIC). It is filed as cell-based. The conditions noted are these: 37° C., read-out: minimum inhibiting concentration (MIC). As for the experimental part:
(§1) The method used was a dilution of a liquid medium where a series of tubes received the same quantity of a sterile nutritive media and increasing doses of the test compounds were placed therein. Then each tube was seeded with a bacterial strain and was incubated for 24 to 48 hours at 37° C. in an oven. The increasing inhibition was determined by transillumination to determine the minimum inhibiting concentration (MIC in μg/ml) and the results are reported in the following Tables.
(§2) Product A is the crystalline D form of the syn isomer of sodium 3-acetoxymethyl-7-[2-(2-amino-4-thiazolyl)-2-methoxyimino-acetamido]-ceph- 3-eme-4-carboxylate.

For data set [3], the system named is Klebsiella Pneumoniae COc 229. The data set is described as above. In kind it is cell-based. Conditions: 37° C., read-out: minimum inhibiting concentration (MIC). As for the experimental part: as §1, §2
Data set [4] deals with Staphylococcus aureus I H 47. The description is as above. It is filed as cell-based. Conditions: 37° C., read-out: minimum inhibiting concentration (MIC). The protocol:
as §1, §2

Data set [5] concerns Salmonella typhimurium 6478. The data set is described as above. In kind it is cell-based. Conditions: Salmonella enterica, 37° C., read-out: minimum inhibiting concentration (MIC). As for the experimental part:
as §1, §2

The next data set deals with Escherichia Coli A 223. Described as above. It is filed as cell-based. Conditions: 37° C., read-out: minimum inhibiting concentration (MIC). The protocol:
as §1, §2

The test system of another data set is Proteus Vulgaris Du 27. Described as above. It is filed as cell-based. The conditions noted are these: 37° C., read-out: minimum inhibiting concentration (MIC). The protocol:
as §1, §2

Data set [6] has as its system Staphylococcus aureus I H 41. The data set is described as above. In kind it is cell-based. Conditions: 37° C., read-out: minimum inhibiting concentration (MIC). The protocol:
as §1, §2

The subject of the next data set is Proteus Mirabilis 1816. The description is as above. In kind it is cell-based. Conditions: 37° C., read-out: minimum inhibiting concentration (MIC). As for the experimental part: as §1, §2
For another data set, the system named is Proteus Mirabilis 3477. Described as above. It is filed as cell-based. Conditions: 37° C., read-out: minimum inhibiting concentration (MIC). As for the experimental part: as §1, §2
In data set [7] the test system is Klebsiella Pneumoniae COc 238. Described as above. It is filed as cell-based. Conditions: 37° C., read-out: minimum inhibiting concentration (MIC). The protocol: as §1, §2
A further data set deals with Proteus Vulgaris Co 1. The data set is described as above. In kind it is cell-based. The conditions noted are these: 37° C., read-out: minimum inhibiting concentration (MIC). As for the experimental part:
as §1, §2

The next data set deals with Proteus Mirabilis 9048. Described as above. It is filed as cell-based. The conditions noted are these: 37° C., read-out: minimum inhibiting concentration (MIC). The protocol: as §1, §2
Data set [8] deals with Escherichia Coli T 55 4076. The description is as above. In kind it is cell-based. Conditions: 37° C., read-out: minimum inhibiting concentration (MIC). As for the experimental part: as §1, §2
The subject of data set [9] is Staphylococcus aureus I H 38. The description is as above. In kind it is cell-based. Conditions: 37° C., read-out: minimum inhibiting concentration (MIC). The protocol:
as §1, §2

The next data set relates to Escherichia Coli 7881. The data set is described as above. Conditions: 37° C., read-out: minimum inhibiting concentration (MIC). It is filed as cell-based. The protocol:
as §1, §2

The subject of a further data set is Proteus Vulgaris Co 4. The description is as above. Conditions: 37° C., read-out: minimum inhibiting concentration (MIC). It is filed as cell-based. As for the experimental part: as §1, §2
For data set [10], the system named is Staphylococcus aureus I H 005. The description is as above. In kind it is cell-based. The conditions noted are these: 37° C., read-out: minimum inhibiting concentration (MIC). The protocol:
as §1, §2

Data set [11] is described as follows: Stability test, percent of activity remaining on storage. It is filed as physicochemical. The conditions noted are these: nonsterile air; for % of activity after storage: time 0, closed flask. As for the experimental part: Product A was placed in a flask containing nonsterile air and it was closed with a rubber stopper. The flask was stored at the temperatures for the times indicated in the following table and the percent of activity remaining was determined.

Counter-ions that a name gives are not always drawn. Like-named read-outs stand apart in the source and are kept apart here. Where only a bound is given, the exact number is not on record here.

For the compound `CO/N=C(\C(=O)NC1C(=O)N2C(C(=O)O)=C(COC(C)=O)CSC12)c1csc(N)n1` (stereo not drawn) [sodium salt not containing methanol, sodium 3-acetoxymethyl-7-[2-(2-amino-4-thiazolyl)-2-methoxyimino-acetamido]-ceph-3-eme-4-carboxylate], the “affinity to atmospheric humidity / hygroscopicity” value in data set [1] was “hygroscopic”.

Take `CO/N=C(\C(=O)NC1C(=O)N2C(C(=O)O)=C(COC(C)=O)CSC12)c1csc(N)n1` (stereo not drawn) [Product A, sodium 3-acetoxymethyl-7-[2-(2-amino-4-thiazolyl)-2-methoxyimino-acetamido]-ceph-3-eme-4-carboxylate]: the MIC in data set [2] (COLIT554376, 24 H) stood at 0.1 µg/mL; in data set [2] (COLIT554376, 48 H) it was 0.1 µg/mL; in data set [3] (24 H) it was 0.1 µg/mL; in data set [3] (48 H) it was 0.1 µg/mL; in data set [4] (IH47, 24 H), 2 µg/mL; in data set [4] (IH47, 48 H), 2 µg/mL. The MIC in data set [5] (24 H) is 0.1 µg/mL; in data set [5] (48 H), 0.1 µg/mL; in the data set with Escherichia Coli A 223 (COLIA223, 24 H) it was 0.1 µg/mL; with Escherichia Coli A 223 (COLIA223, 48 H) it was 0.1 µg/mL; in the data set on Proteus Vulgaris Du 27 (24 H) it was at most 0.02 µg/mL; in the data set on Proteus Vulgaris Du 27 (48 H), at most 0.02 µg/mL. Besides, the MIC was 1 µg/mL in data set [6] (IH41, 24 H); 2 µg/mL in [6] (IH41, 48 H); 0.05 µg/mL with Proteus Mirabilis 1816 (24 H); 0.05 µg/mL in the data set on Proteus Mirabilis 1816 (48 H); 0.05 µg/mL in the data set on Proteus Mirabilis 3477 (24 H); 0.05 µg/mL with Proteus Mirabilis 3477 (48 H). The MIC was 0.2 µg/mL in [7] (24 H); 0.2 µg/mL in [7] (48 H); 0.2 µg/mL in the data set on Proteus Vulgaris Co 1 (24 H); 0.4 µg/mL in the data set with Proteus Vulgaris Co 1 (48 H); 0.02 µg/mL in the data set with Proteus Mirabilis 9048 (24 H); 0.02 µg/mL in the data set with Proteus Mirabilis 9048 (48 H). Further, the MIC amounted to 0.05 µg/mL in data set [8] (COLIT554076, 24 H); 0.05 µg/mL in [8] (COLIT554076, 48 H); 1 µg/mL in [9] (IH38, 24 H); 2 µg/mL in [9] (IH38, 48 H); 0.1 µg/mL in the data set with Escherichia Coli 7881 (COLI7881, 24 H); 0.1 µg/mL with Escherichia Coli 7881 (COLI7881, 48 H). Also, the MIC in the data set with Proteus Vulgaris Co 4 (24 H) is 0.6 µg/mL; with Proteus Vulgaris Co 4 (48 H), 0.6 µg/mL; in data set [10] (IH005, 24 H), 2 µg/mL; in data set [10] (IH005, 48 H), 3 µg/mL. The “affinity to atmospheric humidity / hygroscopicity” value in [1] (listed as crystalline D form) is listed as “low affinity to atmospheric humidity”. In addition, the remaining at 1080 h in data set [11] (50° C., 1.5 months, closed flask, read-out: % of activity after storage) worked out at 92.5%. In addition, in data set [11] (50° C., 3 months, closed flask, read-out: % of activity after storage), the remaining at 2160 h was determined as 92%. Also, the “% of activity after storage” value in [11] (50° C.) and in data set [11] (80° C.) was 97% each time. The remaining at 336 h in [11] (80° C., 2 weeks, closed flask, read-out: % of activity after storage) turned out to be 81.5%. Also, the remaining at 160 h in data set [11] (80° C., 160 hours, closed flask, read-out: % of activity after storage) is 89.5%.

The values above are taken from patent US4224371A, “Sodium 3-acetoxylmethyl-7-[2-(2-amino-4-thiazolyl)-2-methoxyimino-acetamido]-ce ph-3-eme-4-carboxylate” (priority 1977, dated 1980).
